From the supplement of paper PMC10307832

Experiments:
Assay in all cases: relative viability (nuclei count vs DMSO), 5 days (fraction); higher = more cells survive
LC-2-ad = system: LC-2-ad
How it was run: (§1)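 Lung cancer cell lines, seeded in 1536-well plates, were treated the following day by pin tool with a single drug or with five library-drug doses (not always all listed) in √10 steps on top of a fixed anchor-drug dose. Cells were fixed and nuclei stained in one step after 5 days, and nuclei were counted. Relative viability is the nuclei count for treated wells divided by that for vehicle wells, reported as medians of duplicate plates.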

EKVX = system: EKVX
How it was run: as §1

EMC-BAC-2 = system: EMC-BAC-2
How it was run: as §1

NCI-H1793 = system: NCI-H1793
How it was run: as §1

COR-L 105 = system: COR-L 105
How it was run: as §1

NCI-H2126 = system: NCI-H2126
How it was run: as §1

NCI-H1755 = system: NCI-H1755
How it was run: as §1

NCI-H596 = system: NCI-H596
How it was run: as §1

H3255 = system: H3255
How it was run: as §1

NCI-H2009 = system: NCI-H2009
How it was run: as §1

PC-14 = system: PC-14
How it was run: as §1

UMC-11 = system: UMC-11
How it was run: as §1

NCI-H2087 = system: NCI-H2087
How it was run: as §1

NCI-H1395 = system: NCI-H1395
How it was run: as §1

NCI-H1651 = system: NCI-H1651
How it was run: as §1

CAL-12T = system: CAL-12T
How it was run: as §1

NCI-H2023 = system: NCI-H2023
How it was run: as §1

RERF-LC-KJ = system: RERF-LC-KJ
How it was run: as §1

## Oc1nc(-c2ccc(C(F)(F)F)cc2)nc2c1CSCC2 [XAV939] + CC1(C)CCC(c2ccc(Cl)cc2)=C(CN2CCN(c3ccc(C(=O)NS(=O)(=O)c4ccc(N[C@H](CCN5CCOCC5)CSc5ccccc5)c(S(=O)(=O)C(F)(F)F)c4)cc3)CC2)C1 [Navitoclax] (partner 0.5 µM)
LC-2-ad; first compound 0.08 µM
  relative viability: 0.389
LC-2-ad; first compound 0.253 µM
  relative viability: 0.429
LC-2-ad; first compound 0.8 µM
  relative viability: 0.6
LC-2-ad; first compound 2.53 µM
  relative viability: 0.428
EKVX; first compound 0.08 µM
  relative viability: 1.02
EKVX; first compound 0.253 µM
  relative viability: 0.814
EKVX; first compound 0.8 µM
  relative viability: 0.57
EKVX; first compound 2.53 µM
  relative viability: 0.557
EMC-BAC-2; first compound 0.08 µM
  relative viability: 1.28
EMC-BAC-2; first compound 0.253 µM
  relative viability: 1.04
EMC-BAC-2; first compound 0.8 µM
  relative viability: 1.1
EMC-BAC-2; first compound 2.53 µM
  relative viability: 0.793
NCI-H1793; first compound 0.08 µM
  relative viability: 0.593
NCI-H1793; first compound 0.253 µM
  relative viability: 0.442
NCI-H1793; first compound 0.8 µM
  relative viability: 0.369
NCI-H1793; first compound 2.53 µM
  relative viability: 0.452
COR-L 105; first compound 0.08 µM
  relative viability: 0.754
COR-L 105; first compound 0.253 µM
  relative viability: 0.62
COR-L 105; first compound 0.8 µM
  relative viability: 0.637
COR-L 105; first compound 2.53 µM
  relative viability: 0.458
NCI-H2126; first compound 0.08 µM
  relative viability: 0.773
NCI-H2126; first compound 0.253 µM
  relative viability: 0.653
NCI-H2126; first compound 0.8 µM
  relative viability: 0.813
NCI-H2126; first compound 2.53 µM
  relative viability: 0.739
NCI-H1755; first compound 0.08 µM
  relative viability: 0.945
NCI-H1755; first compound 0.253 µM
  relative viability: 0.796
NCI-H1755; first compound 0.8 µM
  relative viability: 0.907
NCI-H1755; first compound 2.53 µM
  relative viability: 0.853
NCI-H596; first compound 0.08 µM
  relative viability: 0.887
NCI-H596; first compound 0.253 µM
  relative viability: 1.09
NCI-H596; first compound 0.8 µM
  relative viability: 0.901
NCI-H596; first compound 2.53 µM
  relative viability: 0.756
H3255; first compound 0.08 µM
  relative viability: 0.511
H3255; first compound 0.253 µM
  relative viability: 0.445
H3255; first compound 0.8 µM
  relative viability: 0.403
H3255; first compound 2.53 µM
  relative viability: 0.366
NCI-H2009; first compound 0.08 µM
  relative viability: 1.17
NCI-H2009; first compound 0.253 µM
  relative viability: 1.12
NCI-H2009; first compound 0.8 µM
  relative viability: 1.13
NCI-H2009; first compound 2.53 µM
  relative viability: 1.06
PC-14; first compound 0.08 µM
  relative viability: 1.04
PC-14; first compound 0.253 µM
  relative viability: 0.906
PC-14; first compound 0.8 µM
  relative viability: 1.03
PC-14; first compound 2.53 µM
  relative viability: 0.956
UMC-11; first compound 0.08 µM
  relative viability: 0.318
UMC-11; first compound 0.8 µM
  relative viability: 0.3
UMC-11; first compound 2.53 µM
  relative viability: 0.271
NCI-H2087; first compound 0.08 µM
  relative viability: 1.13
NCI-H2087; first compound 0.253 µM
  relative viability: 0.668
NCI-H2087; first compound 0.8 µM
  relative viability: 1
NCI-H2087; first compound 2.53 µM
  relative viability: 0.95
NCI-H1395; first compound 0.08 µM
  relative viability: 1.11
NCI-H1395; first compound 0.253 µM
  relative viability: 1.33
NCI-H1395; first compound 0.8 µM
  relative viability: 1.2
NCI-H1395; first compound 2.53 µM
  relative viability: 1.16
NCI-H1651; first compound 0.08 µM
  relative viability: 1.12
NCI-H1651; first compound 0.253 µM
  relative viability: 1.01
NCI-H1651; first compound 0.8 µM
  relative viability: 0.995
NCI-H1651; first compound 2.53 µM
  relative viability: 0.894
CAL-12T; first compound 0.08 µM
  relative viability: 1.39
CAL-12T; first compound 0.253 µM
  relative viability: 1.07
CAL-12T; first compound 0.8 µM
  relative viability: 1.28
CAL-12T; first compound 2.53 µM
  relative viability: 1.03
NCI-H2023; first compound 0.08 µM
  relative viability: 0.968
NCI-H2023; first compound 0.253 µM
  relative viability: 0.843
NCI-H2023; first compound 0.8 µM
  relative viability: 0.862
NCI-H2023; first compound 2.53 µM
  relative viability: 0.827
RERF-LC-KJ; first compound 0.08 µM
  relative viability: 0.905
RERF-LC-KJ; first compound 0.253 µM
  relative viability: 0.999
RERF-LC-KJ; first compound 0.8 µM
  relative viability: 0.804
RERF-LC-KJ; first compound 2.53 µM
  relative viability: 0.452
